In ChEMBL document CHEMBL4190187, “Discovery of pyrazolopyrimidine derivatives as novel inhibitors of ataxia telangiectasia and rad3 related protein (ATR)” (Bioorg Med Chem Lett, 2017):

Assays:
[1] = system: Mus musculus; assay: AUC in mouse at 10 mg/kg, po; assay type: ADME, organism-based; conditions: in vivo
[2] = system: Tyrosine-protein kinase ABL1 (Homo sapiens), P00519 [Q252H]; assay: Inhibition of recombinant human Abl Q252H mutant (27 to end residues) at 1 uM using EAIYAAPFAKKK as substrate after 40 mins in presence of [gamma-33P]ATP by scintillation counting method
[3] = molecular target: Bone morphogenetic protein receptor type-1B (Homo sapiens) (UniProt O00238); assay: Inhibition of recombinant human ALK6 (148 to end residues) at 1 uM using casein as substrate after 40 mins in presence of [gamma-33P]ATP by scintillation counting method
[4] = molecular target: Protein-tyrosine kinase 6 (Homo sapiens) (UniProt Q13882); assay: Inhibition of recombinant full-length human BRK at 1 uM using poly(Glu,Tyr) 4:1 as substrate after 40 mins in presence of [gamma-33P]ATP by scintillation counting method
[5] = molecular target: Tyrosine-protein kinase Fer (Homo sapiens) (UniProt P16591); assay: Inhibition of recombinant human FER (541 to end residues) at 1 uM using KKKSPGEYVNIEFG as substrate after 40 mins in presence of [gamma-33P]ATP by scintillation counting method
[6] = molecular target: Macrophage colony-stimulating factor 1 receptor (Homo sapiens) (UniProt P07333); assay: Inhibition of recombinant human Fms (538 to end residues) at 1 uM using KKKSPGEYVNIEFG as substrate after 40 mins in presence of [gamma-33P]ATP by scintillation counting method
Chain of Macrophage colony-stimulating factor 1 receptor (Homo sapiens) (P07333 whole entry): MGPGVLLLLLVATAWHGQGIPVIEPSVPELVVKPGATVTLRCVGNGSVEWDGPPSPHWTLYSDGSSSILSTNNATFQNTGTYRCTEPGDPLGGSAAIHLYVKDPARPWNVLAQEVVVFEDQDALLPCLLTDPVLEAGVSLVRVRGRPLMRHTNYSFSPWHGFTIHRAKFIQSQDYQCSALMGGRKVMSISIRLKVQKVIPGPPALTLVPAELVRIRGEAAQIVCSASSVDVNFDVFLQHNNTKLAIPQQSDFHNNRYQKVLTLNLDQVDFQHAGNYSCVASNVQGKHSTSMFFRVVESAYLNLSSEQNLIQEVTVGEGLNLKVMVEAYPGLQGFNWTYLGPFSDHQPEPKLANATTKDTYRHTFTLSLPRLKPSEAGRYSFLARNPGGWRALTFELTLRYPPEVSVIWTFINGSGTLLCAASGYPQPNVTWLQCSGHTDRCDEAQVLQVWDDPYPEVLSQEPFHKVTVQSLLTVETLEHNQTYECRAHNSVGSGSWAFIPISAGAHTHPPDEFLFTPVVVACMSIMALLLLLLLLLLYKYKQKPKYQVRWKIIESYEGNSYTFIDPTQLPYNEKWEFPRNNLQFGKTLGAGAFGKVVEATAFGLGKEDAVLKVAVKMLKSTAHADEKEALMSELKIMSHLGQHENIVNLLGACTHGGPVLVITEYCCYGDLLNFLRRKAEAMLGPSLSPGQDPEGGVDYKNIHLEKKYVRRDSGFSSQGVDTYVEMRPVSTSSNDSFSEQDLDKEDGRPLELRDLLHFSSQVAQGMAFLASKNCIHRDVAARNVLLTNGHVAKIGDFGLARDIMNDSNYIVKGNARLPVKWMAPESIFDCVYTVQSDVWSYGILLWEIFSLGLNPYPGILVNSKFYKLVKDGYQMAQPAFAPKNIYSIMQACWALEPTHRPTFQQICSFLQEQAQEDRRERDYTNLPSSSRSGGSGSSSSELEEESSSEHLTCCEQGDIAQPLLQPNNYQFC

[7] = molecular target: G protein-coupled receptor kinase 3 (Homo sapiens) (UniProt P35626); assay: Inhibition of recombinant full-length human GRK3 at 1 uM using casein as substrate after 40 mins in presence of [gamma-33P]ATP by scintillation counting method
Chain of G protein-coupled receptor kinase 3 (Homo sapiens) (P35626 whole entry): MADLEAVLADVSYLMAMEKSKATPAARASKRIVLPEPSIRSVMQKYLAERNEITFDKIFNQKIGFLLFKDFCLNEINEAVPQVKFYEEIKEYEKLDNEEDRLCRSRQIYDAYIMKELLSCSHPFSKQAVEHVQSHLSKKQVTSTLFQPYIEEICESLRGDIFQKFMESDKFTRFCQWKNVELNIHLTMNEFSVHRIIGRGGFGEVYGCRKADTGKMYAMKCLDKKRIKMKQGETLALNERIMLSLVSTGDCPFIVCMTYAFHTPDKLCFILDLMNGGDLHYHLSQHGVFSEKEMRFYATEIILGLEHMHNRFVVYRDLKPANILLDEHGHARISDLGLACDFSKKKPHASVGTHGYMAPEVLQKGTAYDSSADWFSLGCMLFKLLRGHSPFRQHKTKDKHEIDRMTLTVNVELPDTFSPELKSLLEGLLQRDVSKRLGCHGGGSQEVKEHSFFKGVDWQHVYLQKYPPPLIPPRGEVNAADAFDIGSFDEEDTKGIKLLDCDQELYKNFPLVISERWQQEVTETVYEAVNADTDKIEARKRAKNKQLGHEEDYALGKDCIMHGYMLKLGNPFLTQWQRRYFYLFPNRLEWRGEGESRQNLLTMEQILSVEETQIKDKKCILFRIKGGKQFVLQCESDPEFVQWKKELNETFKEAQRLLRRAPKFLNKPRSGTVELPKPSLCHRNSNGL

[8] = molecular target: Glycogen synthase kinase-3 beta (Homo sapiens) (UniProt P49841); assay: Inhibition of recombinant human GSK3beta (2 to end residues) at 1 uM using YRRAAVPPSPSLSRHSSPHQS(p)EDEEE (phospho GS2 peptide) as substrate after 40 mins in presence of [gamma-33P]ATP by scintillation counting method
[9] = molecular target: Mitogen-activated protein kinase kinase kinase kinase 1 (Homo sapiens) (UniProt Q92918); assay: Inhibition of recombinant human HPK1 (1 to 346 residues) at 1 uM using myelin basic protein as substrate after 40 mins in presence of [gamma-33P]ATP by scintillation counting method
Chain of Mitogen-activated protein kinase kinase kinase kinase 1 (Homo sapiens) (Q92918 whole entry, looked up, the tested form may be a part): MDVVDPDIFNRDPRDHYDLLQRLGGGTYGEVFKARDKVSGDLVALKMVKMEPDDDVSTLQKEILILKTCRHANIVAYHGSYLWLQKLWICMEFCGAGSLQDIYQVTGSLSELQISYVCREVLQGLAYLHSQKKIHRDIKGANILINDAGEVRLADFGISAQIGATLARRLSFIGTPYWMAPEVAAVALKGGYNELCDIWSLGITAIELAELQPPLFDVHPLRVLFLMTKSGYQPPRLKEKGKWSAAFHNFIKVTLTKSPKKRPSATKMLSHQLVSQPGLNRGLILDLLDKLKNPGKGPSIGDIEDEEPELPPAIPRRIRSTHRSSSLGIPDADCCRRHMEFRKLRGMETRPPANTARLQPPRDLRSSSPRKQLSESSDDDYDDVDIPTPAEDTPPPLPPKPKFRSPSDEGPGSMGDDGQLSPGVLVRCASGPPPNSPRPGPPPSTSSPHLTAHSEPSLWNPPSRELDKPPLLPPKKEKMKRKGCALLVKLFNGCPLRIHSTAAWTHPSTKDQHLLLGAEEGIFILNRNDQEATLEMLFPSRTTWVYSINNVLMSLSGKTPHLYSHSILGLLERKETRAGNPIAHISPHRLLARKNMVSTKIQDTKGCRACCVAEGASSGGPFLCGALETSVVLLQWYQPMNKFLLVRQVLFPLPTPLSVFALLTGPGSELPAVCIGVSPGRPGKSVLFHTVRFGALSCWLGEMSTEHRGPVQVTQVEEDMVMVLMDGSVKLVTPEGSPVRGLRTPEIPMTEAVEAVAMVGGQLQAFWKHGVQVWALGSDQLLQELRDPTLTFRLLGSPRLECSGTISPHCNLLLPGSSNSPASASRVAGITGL

[10] = molecular target: Inhibitor of nuclear factor kappa-B kinase subunit alpha (Homo sapiens) (UniProt O15111); assay: Inhibition of recombinant full-length human IKKalpha at 1 uM using peptide as substrate after 40 mins in presence of [gamma-33P]ATP by scintillation counting method
[11] = molecular target: Serine/threonine-protein kinase 10 (Homo sapiens) (UniProt O94804); assay: Inhibition of recombinant human LOK (1 to 348 residues) at 1 uM using RLGRDKYKTLRQIRQ as substrate after 40 mins in presence of [gamma-33P]ATP by scintillation counting method
Chain of Serine/threonine-protein kinase 10 (Homo sapiens) (O94804 whole entry, looked up, the tested form may be a part): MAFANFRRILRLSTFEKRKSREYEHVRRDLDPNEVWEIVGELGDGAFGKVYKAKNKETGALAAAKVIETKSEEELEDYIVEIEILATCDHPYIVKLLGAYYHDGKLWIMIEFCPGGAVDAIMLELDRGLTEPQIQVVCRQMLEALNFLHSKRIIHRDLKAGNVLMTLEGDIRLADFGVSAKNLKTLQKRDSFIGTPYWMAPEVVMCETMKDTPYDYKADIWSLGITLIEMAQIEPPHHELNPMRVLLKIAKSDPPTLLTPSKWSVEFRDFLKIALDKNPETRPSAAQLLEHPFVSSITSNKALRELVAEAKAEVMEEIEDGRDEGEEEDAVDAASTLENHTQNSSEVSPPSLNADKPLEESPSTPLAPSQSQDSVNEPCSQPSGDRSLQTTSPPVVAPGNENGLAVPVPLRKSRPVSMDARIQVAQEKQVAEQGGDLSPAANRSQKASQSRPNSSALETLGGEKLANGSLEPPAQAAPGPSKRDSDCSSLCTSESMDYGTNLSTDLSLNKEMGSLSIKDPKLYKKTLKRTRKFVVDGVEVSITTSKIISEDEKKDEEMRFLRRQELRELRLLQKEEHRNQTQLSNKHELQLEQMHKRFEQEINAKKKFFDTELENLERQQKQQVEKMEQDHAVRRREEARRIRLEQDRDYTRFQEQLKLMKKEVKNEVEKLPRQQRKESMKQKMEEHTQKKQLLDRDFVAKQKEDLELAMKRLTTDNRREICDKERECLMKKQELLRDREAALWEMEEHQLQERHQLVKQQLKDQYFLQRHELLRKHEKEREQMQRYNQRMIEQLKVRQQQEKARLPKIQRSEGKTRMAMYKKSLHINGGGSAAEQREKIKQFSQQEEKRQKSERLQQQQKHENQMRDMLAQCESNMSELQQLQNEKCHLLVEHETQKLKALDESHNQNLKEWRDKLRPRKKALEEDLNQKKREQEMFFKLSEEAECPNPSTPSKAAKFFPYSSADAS

[12] = molecular target: Mitogen-activated protein kinase kinase kinase 10 (Homo sapiens) (UniProt Q02779); assay: Inhibition of recombinant human MLK2 (1 to 449 residues) at 1 uM using myelin basic protein as substrate after 40 mins in presence of [gamma-33P]ATP by scintillation counting method
[13] = molecular target: Serine/threonine-protein kinase Nek7 (Homo sapiens) (UniProt Q8TDX7); assay: Inhibition of recombinant human NEK7 (2 to end residues) at 1 uM using FLAKSFGSPNRAYKK as substrate after 40 mins in presence of [gamma-33P]ATP by scintillation counting method
Chain of Serine/threonine-protein kinase Nek7 (Homo sapiens) (Q8TDX7 whole entry, looked up): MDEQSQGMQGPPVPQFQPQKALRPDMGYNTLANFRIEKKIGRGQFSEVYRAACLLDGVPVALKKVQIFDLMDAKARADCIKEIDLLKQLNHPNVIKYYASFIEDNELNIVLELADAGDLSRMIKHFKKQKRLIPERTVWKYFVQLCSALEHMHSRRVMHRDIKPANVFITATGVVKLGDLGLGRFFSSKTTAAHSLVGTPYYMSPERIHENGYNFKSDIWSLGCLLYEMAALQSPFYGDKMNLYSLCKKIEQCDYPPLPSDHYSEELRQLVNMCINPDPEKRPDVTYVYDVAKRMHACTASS

[14] = molecular target: Platelet-derived growth factor receptor beta (Homo sapiens) (UniProt P09619); assay: Inhibition of recombinant human PDGFRbeta (557 to end residues) at 1 uM using poly(Glu,Tyr) 4:1 as substrate after 40 mins in presence of [gamma-33P]ATP by scintillation counting method
[15] = molecular target: PI3K p110 beta/p85 alpha (Mus musculus) (UniProt P26450+Q8BTI9); assay: Inhibition of recombinant full-length mouse p110b/p85a at 1 uM using phosphatidylinositol 4,5-bisphosphate as substrate after 40 mins in presence of [gamma-33P]ATP by scintillation counting method; assay type: protein-complex assay
[16] = molecular target: Serine/threonine-protein kinase pim-2 (Homo sapiens) (UniProt Q9P1W9); assay: Inhibition of recombinant human PIM2 (2 to end residues) at 1 uM using RSRHSSYPAGT as substrate after 40 mins in presence of [gamma-33P]ATP by scintillation counting method
[17] = molecular target: Protein kinase C gamma type (Homo sapiens) (UniProt P05129); assay: Inhibition of recombinant full-length human PKCgamma at 1 uM using histone H1 as substrate after 40 mins in presence of [gamma-33P]ATP by scintillation counting method
[18] = molecular target: Protein kinase C iota type (Homo sapiens) (UniProt P41743); assay: Inhibition of recombinant full-length human PKCiota at 1 uM using ERMRPRKRQGSVRRRV as substrate after 40 mins in presence of [gamma-33P]ATP by scintillation counting method
[19] = molecular target: Serine/threonine-protein kinase D2 (Homo sapiens) (UniProt Q9BZL6); assay: Inhibition of recombinant full-length human PKD2 at 1 uM using KKLNRTLSVA as substrate after 40 mins in presence of [gamma-33P]ATP by scintillation counting method
[20] = molecular target: Ribosomal protein S6 kinase alpha-2 (Homo sapiens) (UniProt Q15349); assay: Inhibition of recombinant full-length human Rsk3 at 1 uM using KKKNRTLSVA as substrate after 40 mins in presence of [gamma-33P]ATP by scintillation counting method
[21] = molecular target: Mitogen-activated protein kinase 14 (Homo sapiens) (UniProt Q16539); assay: Inhibition of recombinant full-length human SAPK2a at 1 uM using myelin basic protein as substrate after 40 mins in presence of [gamma-33P]ATP by scintillation counting method
[22] = molecular target: Serine/threonine-protein kinase 32B (Homo sapiens) (UniProt Q9NY57); assay: Inhibition of recombinant full-length human STK32B at 1 uM using casein as substrate after 120 mins in presence of [gamma-33P]ATP by scintillation counting method
[23] = molecular target: Serine/threonine-protein kinase SIK3 (Homo sapiens) (UniProt Q9Y2K2); assay: Inhibition of recombinant human SIK3 (1 to 307 residues) at 1 uM using KKKVSRSGLYRSPSMPENLNRPR as substrate after 40 mins in presence of [gamma-33P]ATP by scintillation counting method
[24] = molecular target: SNF-related serine/threonine-protein kinase (Homo sapiens) (UniProt Q9NRH2); assay: Inhibition of recombinant human SNRK (1 to 505 residues) at 1 uM using KKLRRTLSFAEPG as substrate after 40 mins in presence of [gamma-33P]ATP by scintillation counting method
Chain of SNF-related serine/threonine-protein kinase (Homo sapiens) (Q9NRH2 whole entry, the tested form may be a part): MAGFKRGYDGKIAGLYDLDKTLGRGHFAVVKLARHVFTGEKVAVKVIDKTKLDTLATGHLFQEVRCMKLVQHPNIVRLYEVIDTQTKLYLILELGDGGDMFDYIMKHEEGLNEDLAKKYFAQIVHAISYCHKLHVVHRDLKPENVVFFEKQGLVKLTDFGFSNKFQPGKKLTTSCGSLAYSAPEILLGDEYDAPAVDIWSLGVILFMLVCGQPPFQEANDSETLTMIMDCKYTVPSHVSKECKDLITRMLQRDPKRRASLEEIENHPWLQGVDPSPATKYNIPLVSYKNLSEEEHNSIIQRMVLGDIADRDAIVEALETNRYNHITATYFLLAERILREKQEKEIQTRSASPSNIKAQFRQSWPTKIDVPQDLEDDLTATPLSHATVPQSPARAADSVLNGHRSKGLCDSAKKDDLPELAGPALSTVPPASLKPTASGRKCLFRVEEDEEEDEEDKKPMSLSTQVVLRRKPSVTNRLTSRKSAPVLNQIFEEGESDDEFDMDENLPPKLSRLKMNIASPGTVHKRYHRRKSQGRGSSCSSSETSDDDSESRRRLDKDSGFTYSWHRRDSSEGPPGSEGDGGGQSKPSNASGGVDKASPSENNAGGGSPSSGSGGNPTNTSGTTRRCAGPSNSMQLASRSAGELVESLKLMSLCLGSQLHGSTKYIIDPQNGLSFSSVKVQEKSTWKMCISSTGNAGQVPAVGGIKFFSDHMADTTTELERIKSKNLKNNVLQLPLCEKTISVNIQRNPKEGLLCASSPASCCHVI

[25] = molecular target: Tyrosine-protein kinase Yes (Homo sapiens) (UniProt P07947); assay: Inhibition of recombinant full-length human Yes at 1 uM using poly(Glu,Tyr) 4:1 as substrate after 40 mins in presence of [gamma-33P]ATP by scintillation counting method
Chain of Tyrosine-protein kinase Yes (Homo sapiens) (P07947 2-543 limits assumed): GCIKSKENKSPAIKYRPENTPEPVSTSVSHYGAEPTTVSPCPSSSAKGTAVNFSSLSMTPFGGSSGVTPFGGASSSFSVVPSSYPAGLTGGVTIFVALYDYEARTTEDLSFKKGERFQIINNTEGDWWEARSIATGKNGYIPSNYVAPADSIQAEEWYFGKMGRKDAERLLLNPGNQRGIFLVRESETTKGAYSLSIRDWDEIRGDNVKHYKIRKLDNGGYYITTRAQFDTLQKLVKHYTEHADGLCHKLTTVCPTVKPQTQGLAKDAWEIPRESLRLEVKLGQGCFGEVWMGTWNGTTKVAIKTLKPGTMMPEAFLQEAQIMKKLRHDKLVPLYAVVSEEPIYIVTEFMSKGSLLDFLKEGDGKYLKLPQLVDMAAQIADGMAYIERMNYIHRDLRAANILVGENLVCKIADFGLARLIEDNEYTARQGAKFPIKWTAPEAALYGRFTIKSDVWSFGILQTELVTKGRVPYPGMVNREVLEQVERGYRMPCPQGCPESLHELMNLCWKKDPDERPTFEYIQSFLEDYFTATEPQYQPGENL

CS(=O)(=O)c1ccc(-n2nc(-c3cnc4[nH]ccc4c3)c3c(N)ncnc32)cc1
AUC [1]: 0.212 µM·h | inhibition [2]: 70% | inhibition [3]: 18% | inhibition [4]: 102% | inhibition [5]: 1% | inhibition [6]: 76% | inhibition [7]: 1% | inhibition [8]: 2% | inhibition [9]: 2% | inhibition [10]: -5% | inhibition [11]: -5% | inhibition [12]: -1% | inhibition [13]: -1% | inhibition [14]: -7% | inhibition [15]: 0% | inhibition [16]: -7% | inhibition [17]: 3% | inhibition [18]: 5% | inhibition [19]: 17% | inhibition [20]: -8% | inhibition [21]: -5% | inhibition [22]: 7% | inhibition [23]: 20% | inhibition [24]: -6% | inhibition [25]: 92%
